Measured values published in US10822315B2, “5-benzylidene-4-oxazolidinones” (NORTH CAROLINA STATE UNIVERSITY, priority 2016, dated 2020).
Values after ≈ are worked out from the molar mass of the structure shown. Like-named read-outs stand apart in the source and are kept apart here.

Assays:
[1] = system: MRSA ATCC BAA-44; assay: Biofilm inhibition assay (crystal violet); type: cell-based, Staphylococcus aureus; settings: for IC50: MRSA ATCC BAA-44; for inhibition at 5 µM: MRSA ATCC BAA 44; for dose dependence of biofilm inhibition (in words): relative to MIC
Experimental: (§1) General Information. Methicillin-resistant Staphylococcus aureus (MRSA) strains were obtained from the Laboratory of Professor Christian Melander (NCSU) ATCC (33591, BAA 44, BAA 1685, BAA 1770, BAA 43 300) and colonies were grown on solid media as instructed. Mueller-Hinton broth (MHB, 211443-BD), tryptic soy broth (TSB, Remel: R455052) and D-glucose (CAS: 492-62-6) were purchased from Fisher Scientific. Tryptic soy agar (TSA, cat. #22091) and Linezolid (cat. # P70014) were purchased from Sigma-Aldrich. Bacteria for biofilm inhibition and dispersion assays were cultured overnight in TSBG (tryptic soy broth with 0.5% glucose supplement). All assays were run in duplicate and repeated at least two separate times for MIC assays and at least four separate times for biofilm inhibition and dispersion assays. All compounds were dissolved molecular biology grade DMSO as 100 mM stock solutions and further diluted to 10 and 1 mM stock solutions as needed. Optical densities were measured using a Thermo Scientific Genesys 20 spectrophotometer. Data for biofilm inhibition and dispersion assays was collected using a BioTek ELx808 Microplate Reader. All graphs were generated and analyzed using GraphPad Prism 7.
(§2) Biofilm Inhibition Assay. Studies were performed using the standard method described in S. A. Rogers and C. Melander, Angew Chem Int Ed, 2008, 47, 5229-5231. Briefly, biofilm inhibition assays were performed by taking an overnight culture of bacterial strain and subculturing it at an OD600 of 0.01 into the necessary growth liquid medium (LB for A. baumannii, LBNS for P. aeruginosa, Stainer-Scholte medium that was supplemented with 10 μL/mL of 100× nutrient complex for B. bronchiseptica and TSB w/0.3% glucose for S. aureus) for the strain. The compound being tested was then added at a predetermined concentration and then aliquoted (100 μL) into the wells of a 96-well PVC microtiter plate (wells not used for samples are filled with 100 μL of de-ionized water). Plates were then wrapped in GLAD Press n' Seal and incubated under stationary conditions at 37° C. After 24 hours, the media was discarded from the wells and the plates were washed thoroughly with tap water. Plates were then stained with 100 μL of 0.1% solution of crystal violet (CV) and then incubated at an ambient temperature for 30 minutes. Sample plates were then washed with tap water again and the remaining stain was solubilized with 200 μL of 95% ethanol. Biofilm inhibition was quantitated by measuring the OD540 for each well by transferring 125 μL of the solubilized CV stain into a polystyrene microtiter dish for analysis. Biofilm inhibition was quantified by measuring the OD540 of each well and calculated as a percentage of the control (no compound); a negative control lane wherein no biofilm was formed served as a background and was subtracted out.
(§3) Percent inhibition was then plotted against concentration in Prism 7. Each of the four experiments were plotted separately and analyzed by a normalized nonlinear regression. The IC50 values reported represent an arithmetic mean of the four IC50 values. Biofilm data represent four separate experiments, with each experiment performed in duplicate (average of 8 data points for each concentration tested, unless otherwise noted)

[2] = system: MRSA Strain 1770; assay: Biofilm inhibition assay (crystal violet); type: cell-based, Staphylococcus aureus; settings: for inhibition at 5 µM / inhibition at 40 µM: Staphylococcus aureus, read-out: % Biofilm Inhibition (5/40 μM)
Experimental: as §1, §2, §3

[3] = system: MRSA ATCC BAA-44; assay: Broth microdilution MIC determination; type: cell-based, Staphylococcus aureus; settings: for MIC: Staphylococcus aureus
[4] = system: MRSA Strain 43300; assay: Biofilm inhibition assay (crystal violet); type: cell-based; settings: Staphylococcus aureus, read-out: % Biofilm Inhibition (5/40 μM)
Experimental: as §1, §2, §3

[5] = system: MRSA Strain 1685; assay: Biofilm inhibition assay (crystal violet); type: cell-based; settings: Staphylococcus aureus, read-out: % Biofilm Inhibition (5/40 μM)
Experimental: as §1, §2, §3

[6] = system: MRSA ATCC BAA-44; assay: Biofilm dispersion assay (crystal violet, pre-formed biofilm); type: cell-based, Staphylococcus aureus; settings: for % dispersion of pre-formed biofilm: 40 μM; for IC50: MRSA ATCC BAA-44; for % dispersion of pre-formed biofilm at 5 µM: MRSA ATCC BAA 44
Experimental: as §1
(§4) Biofilm Dispersion Assay. Studies were performed using the standard method described in J. J. Richards, T. E. Ballard and C. Melander, Org Biomol Chem, 2008, 6, 1356-1363. Briefly, dispersion assays were performed by taking an overnight culture of bacterial strain and subculturing it at an OD600 of 0.01 into the necessary growth liquid medium. The resulting bacterial suspension was aliquoted (100 μL) into the wells of a 96-well PVC microtiter plate. Plates were then wrapped in GLAD Press n' Seal followed by an incubation under stationary conditions at an ambient temperature. After 24 hours, the media was discarded from the wells and the plates were washed thoroughly with tap water. Predetermined concentrations of the test compound were then made in the same medium used to initially grow the biofilms and then aliquoted (100 μL) into the wells of the 96-well PVC microtiter plate with the established biofilms. Plates were then wrapped in GLAD Press n'Seal and incubated under stationary conditions at 37° C. After 24 hours, the media was discarded from the wells and the plates were washed thoroughly with tap water. Plates were then stained with 100 μL of 0.1% solution of crystal violet (CV) and then incubated at room temperature for 30 minutes. Plates were then washed with tap water again and the remaining stain was solubilized with 200 μL of 95% ethanol. Biofilm dispersion was quantitated by measuring the OD540 for each well by transferring 125 μL of the solubilized CV stain into a polystyrene microtiter dish for analysis. Biofilm inhibition was quantified by measuring the OD540 of each well and calculated as a percentage of the control (no compound), a negative control lane wherein no biofilm was formed served as a background and was subtracted out.
as §3, with “dispersion” for “inhibition”

[7] = system: MRSA Strain 43300; assay: Biofilm dispersion assay (crystal violet); type: cell-based, Staphylococcus aureus; settings: for % Biofilm Dispersion (5/40 μM): MRSA strain 43300
Experimental: as §1, §4
as §3, with “dispersion” for “inhibition”

[8] = system: MRSA Strain 1770; assay: Biofilm dispersion assay (crystal violet); type: cell-based, Staphylococcus aureus
Experimental: as §1, §4
as §3, with “dispersion” for “inhibition”

[9] = system: MRSA Strain 1685; assay: Biofilm dispersion assay (crystal violet); type: cell-based, Staphylococcus aureus
Experimental: as §1, §4
as §3, with “dispersion” for “inhibition”

[10] = system: MRSA ATCC BAA-44; assay: Biofilm dispersion assay (crystal violet, pre-formed biofilm); type: cell-based; settings: Staphylococcus aureus, Table 2
[11] = MRSA ATCC BAA 44, Table 2, read-out: MIC
[12] = MRSA ATCC BAA-44, Table 1, read-out: Antimicrobial Activity MIC

Compound `CCCCC(Cl)(Cl)C1NC(=O)/C(=C/c2ccc(C(F)(F)F)cc2)O1` (stereo not shown) [Compound 1, (Z)-2-(1,1-dichloropentyl)-5-(4-(trifluoromethyl)benzylidene)oxazolidin-4-one] has an IC50 [1] of 1000 nM, an inhibition at 5 µM ([1]; Staphylococcus aureus) of 89% and an IC50 ([1]; Staphylococcus aureus) of 780 nM. The “dose dependence of biofilm inhibition (in words)” value [1] was “dose-dependent biofilm inhibition at concentrations well below their MIC”, the inhibition at 5 µM [2] was 49% and the inhibition at 40 µM [2] was 66%. The MIC ([3]; MRSA ATCC BAA-44, read-out: MIC) was 12000 µg/mL (≈ 31400 µM), the MIC [3, 11] was 12 µg/mL (≈ 31.4 µM) and the MIC [3, 12] was 12 µg/mL (≈ 31.4 µM). It also gave an inhibition at 5 µM [4] of 59%, an inhibition at 40 µM [4] of 54% and an inhibition at 5 µM [5] of 45%. For the same compound, the inhibition at 40 µM [5] was 66%, the “% dispersion of pre-formed biofilm” value [6] was 87% and the IC50 [6] was 5700 nM. The % dispersion of pre-formed biofilm at 5 µM ([6]; Staphylococcus aureus) was 59%, the IC50 ([6]; Staphylococcus aureus) was 4700 nM and the “% Biofilm Dispersion (5/40 μM)” value ([7]; 5 μM) was 23%. The “% Biofilm Dispersion (5/40 μM)” value ([7]; 40 μM) was 63%, the “% Biofilm Dispersion (5/40 μM)” value ([8]; 5 μM) was 52% and the “% Biofilm Dispersion (5/40 μM)” value ([8]; 40 μM) was 46%. The “% Biofilm Dispersion (5/40 μM)” value ([9]; 5 μM) was 24%, the “% Biofilm Dispersion (5/40 μM)” value ([9]; 40 μM) was 61% and the inhibition at 40 µM [10] was 87%.
For `O=C1NC(C(Cl)(Cl)Cc2ccccc2)O/C1=C\c1ccc(C(F)(F)F)cc1` (stereo not shown) [Compound 2, (Z)-2-(1,1-dichloro-2-phenylethyl)-5-(4-(trifluoromethyl)benzylidene)oxazolidin-4-one], the IC50 [1] was 1400 nM, the inhibition at 5 µM ([1]; Staphylococcus aureus) was 82% and the IC50 ([1]; Staphylococcus aureus) was 1200 nM. The “dose dependence of biofilm inhibition (in words)” value [1] was “dose-dependent biofilm inhibition at concentrations well below their MIC”, the “biofilm inhibition activity (in words)” value [2] was “virtually no activity” and the inhibition at 5 µM [2] was 3%. The inhibition at 40 µM [2] was -16%, the MIC [3, 11] was 6 µg/mL (≈ 14.4 µM) and the MIC [3, 12] was 6 µg/mL (≈ 14.4 µM). The “fold enhancement of the MIC” value ([3]; benzyl side chain (2) versus n-butyl side chain (1)) was 2 fold, the inhibition at 5 µM [4] was 41% and the inhibition at 40 µM [4] was 63%. For the same compound, the inhibition at 5 µM [5] was 19%, the inhibition at 40 µM [5] was 17% and the “% dispersion of pre-formed biofilm” value [6] was 69%. The % dispersion of pre-formed biofilm at 5 µM ([6]; Staphylococcus aureus) was 57%, the IC50 ([6]; Staphylococcus aureus) was 4300 nM and the “% Biofilm Dispersion (5/40 μM)” value ([7]; 5 μM) was 37/− %. For the same compound, the “biofilm dispersion activity (in words)” value ([7]; MRSA strain 43 300) was “no dose-dependent dispersion activity”, the “% Biofilm Dispersion (5/40 μM)” value ([8]; 5 μM) was 29/− % and the “% Biofilm Dispersion (5/40 μM)” value ([9]; 5 μM) was 15/− %. The inhibition at 40 µM [10] was 69%.
